Like-named read-outs stand apart in the source and are kept apart here.
What was measured:
GDF8 = assay: AlphaScreen SureFire p-SMAD3 (Ser423/425) assay, GDF8-stimulated cells; type: cell-based; conditions: Mus musculus
Summary of the method: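 Lysate (5 μL) went into 384-well shallow plates with 5 μL of Reaction Buffer, Activation Buffer and AlphaScreen Acceptor bead mix. Plates were sealed, kept dark and shaken for 2 hours at room temperature. Donor beads in dilution buffer (2 μL) were added for another 1½ hours, and p-SMAD3 signal was read on a Synergy-4 or Enspire reader.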

TGF-β = assay: AlphaScreen SureFire p-SMAD3 (Ser423/425) assay, TGF-β-stimulated cells; type: cell-based; conditions: Mus musculus
Summary of the method: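 The p-SMAD-3 (Ser423/425) SureFire assay measured phosphorylation of endogenous SMAD-3 in cell lysates. Cells were plated overnight in collagen-coated plates, exposed to three-fold serially diluted compounds for about 10 minutes, then stimulated with TGFβ. Lysates (5 μL) received acceptor bead mix for 2 hours, then donor beads for 1½ hours before AlphaScreen reading.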

[1] = MPC-11, p-SMAD3 (Ser423/425) AlphaScreen in cell lysate, MPC11, GDF8 stimulation, read-out: GDF8: inhibition of GDF8 signaling, GDF pSMAD (MPC11)
[2] = p-SMAD3 (Ser423/425) AlphaScreen in cell lysate, MPC-11, TGF-β stimulation, read-out: TGF-β: inhibition of TGF-β signaling, TGF-β pSMAD (MPC-11)
[3] = MPC-11, read-out: GDF8: inhibition of GDF8 signaling, GDF pSMAD (MPC11), p-SMAD3 (Ser423/425) AlphaScreen in cell lysate, GDF8 stimulation
[4] = MPC-11, read-out: TGF-β: inhibition of TGF-β signaling, TGF-β pSMAD (MPC-11), p-SMAD3 (Ser423/425) AlphaScreen in cell lysate, TGF-β stimulation

Row | IC50 (GDF8; [1]) [nM] | IC50 (TGF-β; [2]) [nM] | SMILES | IC50 (GDF8; [3]) [nM] | IC50 (TGF-β; [4]) [nM]
1 | > 1000 | > 1000 | Cc1cc(-c2nc3n(c2-c2ccc4ncnn4c2)CCC3)cc(C)c1F [Compound 42, 6-(2-(4-fluoro-3,5-dimethylphenyl)-6,7-dihydro-5H-pyrrolo[1,2-a]imidazol-3-yl)-[1,2,4]triazolo[1,5-a]pyridine] | – | –
2 | 100 to 1000 | 100 to 1000 | Cc1c(F)ccc(-c2nc3n(c2-c2ccc4nccnc4c2)CCC3)c1F [Compound 282, 6-(2-(2,4-difluoro-3-methylphenyl)-6,7-dihydro-5H-pyrrolo[1,2-a]imidazol-3-yl)quinoxaline] | – | –
3 | 100 to 1000 | 100 to 1000 | Cc1ccc(Cl)cc1-c1nc2n(c1-c1ccc3nccnc3c1)CCC2 [Compound 342, 6-(2-(5-chloro-2-methylpheny)-6,7-dihydro-5H-pyrrolo[1,2-a]imidazol-3-yl)quinoxaline] | – | –
4 | < 50 | 100 to 1000 | Fc1ccc(-c2nc3n(c2-c2ccc4nccn4c2)CCC3)c(F)c1 [Compound 9] | – | –
5 | 100 to 1000 | > 1000 | Cc1cc(-c2nc3n(c2-c2ccc4ncccc4c2)CCC3)c(C)cc1F [Compound 311, 6-(2-(4-fluoro-2,5-dimethylphenyl)-6,7-dihydro-5H-pyrrolo[1,2-a]imidazol-3-yl)quinoline] | – | –
6 | 100 to 1000 | 100 to 1000 | Fc1ccc(-c2nc3occn3c2-c2ccc3ncccc3c2)cc1 [Compound 146, 5-(quinolin-6-yl)-6-(4-fluorophenyl)imidazo[2,1-b]oxazole] | – | –
7 | – | – | Clc1ccc(Cl)c(-c2nc3n(c2-c2ccc4ncsc4c2)CCC3)c1 [Compound 349, 6-(2-(2,5-dichlorophenyl)-6,7-dihydro-5H-pyrrolo[1,2-a]imidazol-3-yl)benzo[d]thiazole] | < 50 | 50 to 100
8 | 100 to 1000 | 100 to 1000 | Cc1cc(F)c(Cl)cc1-c1nc2n(c1-c1ccc3ncnn3c1)CCC2 [Compound 56, 6-(2-(5-chloro-4-fluoro-2-methylphenyl)-6,7-dihydro-5H-pyrrolo[1,2-a]imidazol-3-yl)-[1,2,4]triazolo[1,5-a]pyridine] | – | –
9 | – | – | COc1cccc(-c2nc3n(c2-c2ccc4cn[nH]c4c2)CCC3)c1 [Compound 186, 6-(2-(3-methoxyphenyl)-6,7-dihydro-5H-pyrrolo[1,2-a]imidazol-3-yl)-1H-indazole] | 50 to 100 | 100 to 1000
10 | 100 to 1000 | 100 to 1000 | Nc1ncnc2ccc(-c3c(-c4cc(F)cc(F)c4F)nc4n3CCC4)cc12 [Compound 344, 6-(2-(2,3,5-trifluorophenyl)-6,7-dihydro-5H-pyrrolo[1,2-a]imidazol-3-yl)quinazolin-4-amine] | – | –
11 | 50 to 100 | 100 to 1000 | FC(F)(F)c1cccc(-c2nc3n(c2-c2ccc4ncsc4c2)CCC3)c1 [Compound 183, 6-(2-(3-(trifluoromethyl)phenyl)-6,7-dihydro-5H-pyrrolo[1,2-a]imidazol-3-yl)benzo[d]thiazole] | – | –
12 | < 50 | 50 to 100 | Nc1ncnc2ccc(-c3c(-c4cc(F)c(F)cc4F)nc4n3CCC4)cc12 [Compound 345, 6-(2-(2,4,5-trifluorophenyl)-6,7-dihydro-5H-pyrrolo[1,2-a]imidazol-3-yl)quinazolin-4-amine] | – | –
13 | > 1000 | > 1000 | Cc1cc(-c2nc3n(c2-c2ccc4ncnn4c2)CCC3)cc(Cl)c1F [Compound 40, 6-(2-(3-chloro-4-fluoro-5-methylphenyl)-6,7-dihydro-5H-pyrrolo[1,2-c]imidazol-3-yl)-[1,2,4]triazolo[1,5-c]pyridine] | – | –
14 | < 50 | < 50 | Fc1ccc(Cl)cc1-c1nc2n(c1-c1ccc3nccn3c1)CCC2 [Compound 83] | – | –
15 | < 50 | 100 to 1000 | Fc1ccc(-c2nc3n(c2-c2ccc4[nH]ncc4c2)CCC3)c(F)c1 [Compound 201, 5-(2-(2,4-difluorophenyl)-6,7-dihydro-5H-pyrrolo[1,2-a]imidazol-3-yl)-1H-indazole] | – | –
16 | – | – | Cc1cc(-c2nc3n(c2-c2ccc4[nH]ncc4c2)CCC3)c(Cl)cc1F [Compound 316, 5-(2-(2-chloro-4-fluoro-5-methylphenyl)-6,7-dihydro-5H-pyrrolo[1,2-a]imidazol-3-yl)-1H-indazole] | 100 to 1000 | 100 to 1000
17 | 50 to 100 | 100 to 1000 | Cc1c(F)ccc(-c2nc3n(c2-c2ccc4[nH]ncc4c2)CCC3)c1F [Compound 280, 5-(2-(2,4-difluoro-3-methylphenyl)-6,7-dihydro-5H-pyrrolo[1,2-a]imidazol-3-yl)-1H-indazole] | – | –
18 | 100 to 1000 | 100 to 1000 | FC(F)(F)c1cccc(-c2nc3n(c2-c2ccc4nccn4c2)CCC3)c1 [Compound 4] | – | –
19 | – | – | COc1ccc(-c2nc3n(c2-c2ccc4ncnn4c2)CCC3)cc1 [Compound 95, 6-(2-(4-methoxyphenyl)-6,7-dihydro-5H-pyrrolo[1,2-a]imidazol-3-yl)-[1,2,4]triazolo[1,5-a]pyridine] | > 1000 | > 1000
20 | – | – | Cc1c(F)ccc(-c2nc3n(c2-c2ccc4[nH]ncc4c2)CCC3)c1C [Compound 328, 5-(2-(4-fluoro-2,3-dimethylphenyl)-6,7-dihydro-5H-pyrrolo[1,2-a]imidazol-3-yl)-1H-indazole] | 100 to 1000 | > 1000
21 | < 50 | 100 to 1000 | Fc1ccc(-c2nc3occn3c2-c2ccc3[nH]ncc3c2)c(F)c1 [Compound 154, 6-(2,4-difluorophenyl)-5-(1H-indazol-5-yl)imidazo[2,1-b]oxazole] | – | –
22 | > 1000 | > 1000 | Cc1cc(-c2nc3n(c2-c2ccc4ncccc4c2)CCC3)cc(C)c1F [Compound 279] | – | –
23 | – | – | Fc1cc(F)cc(-c2nc3n(c2-c2ccc4ncccc4c2)CCC3)c1 [Compound 234, 6-(2-(3,5-difluorophenyl)-6,7-dihydro-5H-pyrrolo[1,2-a]imidazol-3-yl)quinoline] | > 1000 | > 1000
24 | < 50 | < 50 | Cc1cc(-c2nc3n(c2-c2ccc4ncnn4c2)CCC3)c(F)cc1F [Compound 38, 6-(2-(2,4-difluoro-5-methylphenyl)-6,7-dihydro-5H-pyrrolo[1,2-a]imidazol-3-yl)-[1,2,4]triazolo[1,5-a]pyridine] | – | –
25 | – | – | Cc1cc(F)c(Cl)cc1-c1nc2n(c1-c1ccc3nccnc3c1)CCC2 [Compound 298, 6-(2-(5-chloro-4-fluoro-2-methylphenyl)-6,7-dihydro-5H-pyrrolo[1,2-a]imidazol-3-yl)quinoxaline] | 100 to 1000 | > 1000
26 | – | – | CCOC(=O)C1CCC2(CC1)Cc1nc(-c3ccc(F)cc3)c(-c3ccc4ncnn4c3)n1C2 (centres unmarked) [Compound 77, ethyl 3′-([1,2,4]triazolo[1,5-a]pyridin-6-yl)-2′-(4-fluorophenyl)-5′H,7′H-spiro[cyclohexane-1,6′-pyrrolo[1,2-a]imidazole]-4-carboxylate] | > 1000 | > 1000
27 | – | – | Fc1ccc(-c2nc3n(c2-c2ccc4[nH]ncc4c2)CCC3)cc1 [Compound 175, 5-(2-(4-fluorophenyl)-6,7-dihydro-5H-pyrrolo[1,2-a]imidazol-3-yl)-1H-indazole] | 100 to 1000 | 100 to 1000
28 | 100 to 1000 | > 1000 | Fc1cc(F)c(F)c(-c2nc3n(c2-c2ccc4ncnn4c2)CCC3)c1 [Compound 17, 6-(2-(2,3,5-trifluorophenyl)-6,7-dihydro-5H-pyrrolo[1,2-a]imidazol-3-yl)-[1,2,4]triazolo[1,5-a]pyridine] | – | –

From patent US10696693B2, “Fused imidazole derivatives as TGF-beta inhibitors” (Rigel Pharmaceuticals, Inc., priority 2014, dated 2020)
